According to the CheMixHub ionic liquid set:

Assay: xn = mol fraction of the nth substance listed

NCC(O)CO (stereo unspecified) + CC[n+]1ccn(C)c1.[Cl-]
101 kPa, x2 = 0.667
Conditions | viscosity [mPa·s]
298.15 K | 321
303.15 K | 230
313.15 K | 125.5
323.15 K | 70.2
333.15 K | 44.6

CCCC[N+](CCCC)(CCCC)CCCC.[Cl-] + CNCCO
101.3 kPa
Conditions | viscosity [mPa·s]
293.15 K, x1 = 0.09104 | 29.5
298.15 K, x1 = 0.09104 | 22.9
298.15 K, x1 = 0.111 | 26.1
303.15 K, x1 = 0.1441 | 27
308.15 K, x1 = 0.1441 | 21.1
313.15 K, x1 = 0.1441 | 17.1
318.15 K, x1 = 0.09104 | 11.4
328.15 K, x1 = 0.111 | 7.84

CC[n+]1ccn(C)c1C.F[B-](F)(F)F + CO
101.3 kPa
Conditions | viscosity [mPa·s]
293.15 K, x1 = 0.1313 | 1.92
298.15 K, x1 = 0.09153 | 1.35
298.15 K, x1 = 0.2607 | 3.98
303.15 K, x1 = 0.03641 | 0.859
303.15 K, x1 = 0.1313 | 1.64
308.15 K, x1 = 0.06083 | 1.022
308.15 K, x1 = 0.09153 | 1.167
308.15 K, x1 = 0.1313 | 1.51
313.15 K, x1 = 0.1848 | 1.92
318.15 K, x1 = 0.3768 | 5.52
323.15 K, x1 = 0.03641 | 0.664
323.15 K, x1 = 0.09153 | 0.947
323.15 K, x1 = 0.1313 | 1.21
328.15 K, x1 = 0.09153 | 0.874
328.15 K, x1 = 0.1313 | 1.132
328.15 K, x1 = 0.3768 | 4.55
333.15 K, x1 = 0.1313 | 1.065
333.15 K, x1 = 0.1848 | 1.41

C[N+](C)(C)CCO.NCC(=O)[O-] + CO
viscosity [mPa·s], 100 kPa
Conditions | x1 = 0.1002 | x1 = 0.2001 | x1 = 0.2997 | x1 = 0.4004 | x1 = 0.4994 | x1 = 0.6 | x1 = 0.6997 | x1 = 0.8001 | x1 = 0.9 | x1 = 1
298.15 K | 2.3 | 6.55 | 15.49 | 34.55 | 64.1 | 108.4 | 170.2 | 260 | 369 | 501
303.15 K | 2.08 | 5.72 | 13.06 | 28.31 | 50.8 | 84 | 128.3 | 193.9 | 269 | 363
308.15 K | 1.89 | 5.03 | 11.1 | 23.47 | 40.9 | 66.3 | 99.9 | 146.7 | 201 | 264
313.15 K | 1.73 | 4.47 | 9.55 | 19.74 | 33.58 | 53.4 | 78.9 | 111.5 | 153.5 | 201
318.15 K | 1.58 | 3.98 | 8.28 | 16.74 | 27.95 | 45.2 | 62.8 | 89.7 | 118.8 | 154.5
323.15 K | 1.46 | 3.57 | 7.27 | 14.32 | 23.49 | 37.8 | 51.2 | 71.9 | 94.3 | 121.1
